Measured values reported in US20190269626A1, “Hair Protection Effect of Vanillyl Alkyl Ether and the Application thereof” (CORUM INC., priority 2018, published 2019).

Columns and labels:
ROS generation in HFDPC = test: ROS generation with/without pollutant in HFDPC; assay type: cell-based, human; conditions: for ROS generation, pollutant-stimulated condition: pollutant-triggered; for ROS generation, basal condition: without pollutant (basal)
Description: FIG. 4A to FIG. 4B respectively presents with/without pollutant-triggered ROS generation on HFDPC by VBE, and CAP (capsaicin). […] Hair follicle is a mini-organ of the skin which contains dermal papilla cells (DPC) in the bottom site surrounded with matrix cells (keratinocytes) and melanocytes. DPC play an important role to regulate matrix cell proliferation, differentiation and apoptosis during hair cycles, and matrix cells are responsible for forming the major structures of the hair shaft. In the above examples, we established an in vitro model to investigate hair loss mechanism caused by air pollution. Based on our data, SRM1649b (urban dust) PM2.5 is able to activate AhR pathway, enhance ROS generation, up-regulate gene expression of alopecia-related factors (TGF-β2, TNF-α and PTGS2) and stimulate inflammatory cytokines (IL-6, IL-8, and GM-CSF) in human hair follicle dermal papilla cells. […] The mechanism of air pollution induced hair loss is illustrated in FIG. 5.

[1] = tested on: LPS-induced inflammatory cytokines (IL-6 and IL-8) in macrophages; test: LPS-induced inflammatory cytokines (IL-6 and IL-8) in macrophages; assay type: cell-based
Description: One preferred example of this embodiment is application of VBE on decreasing LPS-induced inflammation (IL-6, and IL-8).

[2] = tested on: PMA-induced inflammatory cytokines (IL-6 and IL-8) in HFDPC (human follicle dermal papilla cells); test: PMA-induced inflammatory cytokines (IL-6 and IL-8) in HFDPC; assay type: cell-based
Description: Still another example of this embodiment is application of VBE on decreasing PMA-induced inflammation (IL-6 and IL-8). […] Capsaicin, nonivamide, and minoxidil are effectless to PMA-induced IL-6, and IL-8.

[3] = tested on: hair loss related genes expression (CYP1B1, TGF-β2, and TNF-α) in HFDPC; test: Pollutant-induced hair loss related genes expression in HFDPC; assay type: cell-based, human
Description: Still another example of this embodiment is application of VBE on decreasing pollutant-induced hair loss related genes expression (CYP1B1, TGF-β2, and TNF-α) on HFDPC. FIG. 3 presents pollutant-induced hair loss related genes expression (CYP1B1, TGF-β2, and TNF-α) by VBE, and DMF. DMF is 3′,4′-dimethoxyflavone, and is a AhR (aryl hydrocarbon receptor) antagonist. Pollutants usually generate damages though activating the transcription factor AhR.
(§1) FIG. 5 presents how to improve hair loss of human hair follicle dermal papilla cells with VBE according to the above examples. Hair follicle is a mini-organ of the skin which contains dermal papilla cells (DPC) in the bottom site surrounded with matrix cells (keratinocytes) and melanocytes. DPC play an important role to regulate matrix cell proliferation, differentiation and apoptosis during hair cycles, and matrix cells are responsible for forming the major structures of the hair shaft. In the above examples, we established an in vitro model to investigate hair loss mechanism caused by air pollution. Based on our data, SRM1649b (urban dust) PM2.5 is able to activate AhR pathway, enhance ROS generation, up-regulate gene expression of alopecia-related factors (TGF-β2, TNF-α and PTGS2) and stimulate inflammatory cytokines (IL-6, IL-8, and GM-CSF) in human hair follicle dermal papilla cells. […] The mechanism of air pollution induced hair loss is illustrated in FIG. 5.

[4] = tested on: AhR pathway in human hair follicle dermal papilla cells; test: Air pollution (SRM1649b urban dust PM2.5) in vitro hair loss model in HFDPC: AhR activity and GM-CSF; assay type: cell-based
Description: as §1, with “Hair” for “FIG. 5 presents how to improve hair loss of human hair follicle dermal papilla cells with VBE according to the above examples. Hair”

5-alpha reductase = 5-alpha reductase activity: DHT/Testosterone ratio in NHEK with [14C] testosterone; assay type: cell-based, human
[5] = tested on: anagen hairs and telogen hairs; test: Clinical evaluation of VBE versus placebo, phototrichogram hair growth cycle analysis; assay type: in vivo, human; conditions: topical once a day for 84 days, half-head versus placebo, subjects with androgenetic alopecia
Description: Another example of this embodiment is clinical evaluation of the effect of VBE versus placebo in the male and female subjects after repeated application of 84 days through. The clinical test is finished by Spincontrol, France. The evaluation was performed using phototrichogram for hair growth cycle analysis. 11 healthy subjects from 25 to 49 years with a chronic hair loss/alopecia of androgenetic origin were selected for this study.

pollutant-induced CYP1B1 gene expression [3]	pollutant-induced TGF-β2 gene expression [3]	pollutant-induced TNF-α gene expression [3]	SMILES	ROS generation, pollutant-stimulated condition (ROS generation in HFDPC)	ROS generation, basal condition (ROS generation in HFDPC)	LPS-induced IL-6 [1]	LPS-induced IL-8 [1]	PMA-induced IL-6 [2]	PMA-induced IL-8 [2]	further results
			COc1cc(CNC(=O)CCCC/C=C/C(C)C)ccc1O [Capsaicin]	no effect	no effect	decreased	decreased	no effect	no effect	
reducing	reducing	reducing	COc1ccc(-c2cc(=O)c3ccccc3o2)cc1OC [DMF, 3′,4′-dimethoxyflavone]							
			Nc1cc(N2CCCCC2)nc(N)[n+]1[O-] [Minoxidil]					no effect	no effect	
			CCCCCCCCC(=O)NCc1ccc(O)c(OC)c1 [Nonivamide]			decreased	decreased	no effect	no effect	
reduce	reduce	reduce	CCCCOCc1ccc(O)c(OC)c1 [VBE, vanillyl butyl ether]	decreased	decreased	decrease	decrease	decrease	decrease	AhR activity [4]: attenuating; GM-CSF production [4]: attenuating; DHT/Testosterone ratio compared to control (5-alpha reductase; 50 μg/ml): 64%; DHT/Testosterone ratio, dose dependence (5-alpha reductase; 1.25 to 50 μg/ml): decreases DHT/Testosterone ratio in a dose dependent manner; Anagen (growing) hair [5]: increased; Telogen (resting or shedding) hair [5]: reduced; enhancement of ratio of Anagen to Telogen [5]: 6%
			CC(C)(C)NC(=O)[C@H]1CC[C@H]2[C@@H]3CC[C@H]4NC(=O)C=C[C@]4(C)[C@H]3CC[C@]12C [finasteride]							DHT/testosterone ratio compared to the control condition (5-alpha reductase; finasteride reference): 1%
